Blank lines part the entries; values can stand above or below the molecule they belong to. Active and inactive are the calls of the source.
What was measured:
Large T antigen = Large T antigen (Simian virus 40, UniProt P03070); assay type: functional, Betapolyomavirus macacae;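 further: Confirmatory-stage PubChem screen for compounds that inhibit SV40 T antigen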
SUMO-activating enzyme [1] = target: T1, SUMO-activating enzyme (Homo sapiens, UniProt Q9UBT2); experiment: inhibitors of in vitro SUMOylation cascade, primary screen, biochemical, HTRF, uHTS (AID 2006); assay type: protein-complex assay
[2] = target: T2, Zinc finger protein mex-5 (Caenorhabditis elegans, UniProt Q9XUB2); experiment: MEX-5/TCR-2 RNA interaction inhibitors, dose response, biochemical, C. elegans, fluorescence polarization (AID 1960)
T2 sequence (Q9XUB2 whole entry): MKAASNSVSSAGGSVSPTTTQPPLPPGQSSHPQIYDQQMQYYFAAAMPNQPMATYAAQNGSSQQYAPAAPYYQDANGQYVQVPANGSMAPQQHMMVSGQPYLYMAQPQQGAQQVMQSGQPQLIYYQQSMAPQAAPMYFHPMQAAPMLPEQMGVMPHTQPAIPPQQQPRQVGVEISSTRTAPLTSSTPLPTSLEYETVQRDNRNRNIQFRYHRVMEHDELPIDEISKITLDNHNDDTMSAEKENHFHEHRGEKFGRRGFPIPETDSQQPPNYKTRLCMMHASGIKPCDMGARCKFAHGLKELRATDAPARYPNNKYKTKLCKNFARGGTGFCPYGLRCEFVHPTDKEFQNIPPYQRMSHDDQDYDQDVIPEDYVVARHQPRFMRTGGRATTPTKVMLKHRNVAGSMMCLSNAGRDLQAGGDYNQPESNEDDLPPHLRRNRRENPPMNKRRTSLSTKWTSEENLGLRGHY

SUMO-activating enzyme [3] = target: T1, SUMO-activating enzyme; experiment: SUMOylation inhibitor hit validation, confirmation, SUMOylation inhibitor project, biochemical, AlphaScreen (AID 2018); assay type: functional
Cytochrome P450 2D6 = Cytochrome P450 2D6 (Homo sapiens, UniProt P10635);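 further: CYP2D6 member of a cytochrome P450 panel assay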
[4] = target: T3, RNA-binding protein pos-1 (Caenorhabditis elegans, UniProt G5EF15); experiment: inhibitors of POS-1/mex-3 RNA binding, dose response, biochemical, fluorescence polarization (AID 1964);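 further: purified POS-1 fused to maltose binding protein made in E. coli; potency of compounds blocking POS-1 binding to fluorescent RNA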
T3 sequence (G5EF15 whole entry): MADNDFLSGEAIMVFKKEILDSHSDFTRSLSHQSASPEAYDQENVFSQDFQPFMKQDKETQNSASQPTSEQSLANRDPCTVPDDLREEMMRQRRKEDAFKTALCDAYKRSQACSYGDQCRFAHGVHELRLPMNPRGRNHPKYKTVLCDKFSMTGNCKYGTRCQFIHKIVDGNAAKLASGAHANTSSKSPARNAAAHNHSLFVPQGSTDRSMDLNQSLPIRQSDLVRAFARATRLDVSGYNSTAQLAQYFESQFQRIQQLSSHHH

Cytochrome P450 2C19 = Cytochrome P450 2C19 (Homo sapiens, UniProt P33261); experiment: Cytochrome panel assay with activity outcomes. Panel member name: p450-cyp2c19 Compounds with AC50 equal or less than 10 uM are considered active; assay type: functional; details: read-out: AC50
Cytochrome P450 1A2 = target: T4, Cytochrome P450 1A2 (Homo sapiens, UniProt P05177);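 further: PubChem cytochrome P450 panel assay, CYP1A2 panel member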
T4 sequence (P05177 whole entry): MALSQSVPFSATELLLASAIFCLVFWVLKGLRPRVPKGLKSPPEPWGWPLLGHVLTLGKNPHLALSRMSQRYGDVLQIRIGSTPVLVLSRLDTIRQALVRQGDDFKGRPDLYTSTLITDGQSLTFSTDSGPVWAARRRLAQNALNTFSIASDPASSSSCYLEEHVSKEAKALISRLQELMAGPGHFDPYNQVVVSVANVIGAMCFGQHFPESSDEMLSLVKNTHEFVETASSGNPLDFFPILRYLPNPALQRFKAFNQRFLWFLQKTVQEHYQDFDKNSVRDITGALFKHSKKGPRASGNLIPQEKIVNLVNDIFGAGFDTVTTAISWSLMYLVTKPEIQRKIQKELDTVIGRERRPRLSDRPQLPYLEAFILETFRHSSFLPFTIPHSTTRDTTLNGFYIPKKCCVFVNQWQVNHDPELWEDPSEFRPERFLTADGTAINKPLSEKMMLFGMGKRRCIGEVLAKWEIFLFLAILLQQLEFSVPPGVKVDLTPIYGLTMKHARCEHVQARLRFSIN

[5] = HEp-2 cell cytotoxicity, dose response, cytotoxicity control for RSV inhibitor project, HTS (AID 2410); assay type: functional; details: human respiratory syncytial virus
[6] = target: Melanin-concentrating hormone receptor 1 (Homo sapiens, UniProt Q99705); experiment: Fluorescence-based counterscreen for antagonists of the G-protein coupled receptor 7 (GPR7): cell-based high throughput dose response assay to identify antagonists of the melanin-concentrating hormone receptor 1 (MCHR1).; assay type: functional
[7] = target: Neuropeptides B/W receptor type 1 (Homo sapiens, UniProt P48145); experiment: Fluorescence-based dose response cell-based high throughput screening assay to identify antagonists of the G-protein coupled receptor 7 (GPR7). [Related pubchem assays: 1952 (Screening assay (GPR7 antagonists).), 1880 (Summary AID.)]; assay type: functional
[8] = target: Signal transducer and activator of transcription 3 (Homo sapiens, UniProt P40763); experiment: STAT3 activators, late-stage profile, late-stage follow-up, cell-based, STAT1 reporter, BCL3 qPCR, cytotoxicity, panel member STAT3 Activation (AID 2049)
Chain of Signal transducer and activator of transcription 3 (P40763 whole entry): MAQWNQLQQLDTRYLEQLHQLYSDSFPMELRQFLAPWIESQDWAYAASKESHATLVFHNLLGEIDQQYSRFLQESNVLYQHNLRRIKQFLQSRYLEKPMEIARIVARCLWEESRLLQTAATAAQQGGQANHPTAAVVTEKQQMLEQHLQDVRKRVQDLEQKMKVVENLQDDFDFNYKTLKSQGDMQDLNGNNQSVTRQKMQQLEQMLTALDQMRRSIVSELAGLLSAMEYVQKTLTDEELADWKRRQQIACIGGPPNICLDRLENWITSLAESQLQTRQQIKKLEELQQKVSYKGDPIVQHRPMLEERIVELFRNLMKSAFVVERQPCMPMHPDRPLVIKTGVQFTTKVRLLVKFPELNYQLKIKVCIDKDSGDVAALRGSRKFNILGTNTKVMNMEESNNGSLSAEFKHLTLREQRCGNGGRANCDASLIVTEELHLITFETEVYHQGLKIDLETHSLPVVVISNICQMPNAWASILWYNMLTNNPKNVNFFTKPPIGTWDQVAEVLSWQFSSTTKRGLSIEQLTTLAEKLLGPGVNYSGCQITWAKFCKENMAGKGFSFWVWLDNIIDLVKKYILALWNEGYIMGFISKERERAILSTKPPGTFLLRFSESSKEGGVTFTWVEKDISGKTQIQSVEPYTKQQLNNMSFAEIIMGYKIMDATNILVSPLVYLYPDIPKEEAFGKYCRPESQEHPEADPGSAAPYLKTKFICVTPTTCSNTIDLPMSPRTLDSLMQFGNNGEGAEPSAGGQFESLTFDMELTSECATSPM

T1 sequence (Q9UBE0 whole entry): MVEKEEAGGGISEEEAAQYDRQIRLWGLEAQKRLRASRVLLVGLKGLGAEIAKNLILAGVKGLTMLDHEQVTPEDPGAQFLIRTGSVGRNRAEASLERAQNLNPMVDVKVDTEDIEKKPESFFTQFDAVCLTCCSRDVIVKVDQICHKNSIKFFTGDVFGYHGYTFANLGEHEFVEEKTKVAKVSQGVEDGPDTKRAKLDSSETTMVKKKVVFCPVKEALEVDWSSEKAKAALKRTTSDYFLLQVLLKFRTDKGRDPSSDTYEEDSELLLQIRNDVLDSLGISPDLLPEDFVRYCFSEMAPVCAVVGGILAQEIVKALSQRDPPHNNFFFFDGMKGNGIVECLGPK
T1 sequence (Q9UBT2 whole entry): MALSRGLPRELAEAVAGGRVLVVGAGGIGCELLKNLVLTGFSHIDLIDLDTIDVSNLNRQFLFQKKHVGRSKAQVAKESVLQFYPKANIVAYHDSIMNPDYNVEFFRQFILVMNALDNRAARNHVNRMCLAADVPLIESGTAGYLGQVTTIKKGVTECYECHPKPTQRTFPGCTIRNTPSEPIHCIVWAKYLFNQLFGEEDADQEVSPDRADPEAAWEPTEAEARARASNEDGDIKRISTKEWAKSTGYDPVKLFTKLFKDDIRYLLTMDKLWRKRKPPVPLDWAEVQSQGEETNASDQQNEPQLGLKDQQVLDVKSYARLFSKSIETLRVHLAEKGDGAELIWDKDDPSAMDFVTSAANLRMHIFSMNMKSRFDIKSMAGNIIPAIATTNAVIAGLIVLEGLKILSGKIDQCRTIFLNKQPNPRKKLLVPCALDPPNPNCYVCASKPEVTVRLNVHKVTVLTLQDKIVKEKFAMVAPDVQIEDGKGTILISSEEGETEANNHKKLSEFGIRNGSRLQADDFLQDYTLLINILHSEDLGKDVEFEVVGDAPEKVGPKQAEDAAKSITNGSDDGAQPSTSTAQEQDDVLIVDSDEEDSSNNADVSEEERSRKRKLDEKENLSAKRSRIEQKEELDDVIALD
Chain of Neuropeptides B/W receptor type 1 (P48145 whole entry): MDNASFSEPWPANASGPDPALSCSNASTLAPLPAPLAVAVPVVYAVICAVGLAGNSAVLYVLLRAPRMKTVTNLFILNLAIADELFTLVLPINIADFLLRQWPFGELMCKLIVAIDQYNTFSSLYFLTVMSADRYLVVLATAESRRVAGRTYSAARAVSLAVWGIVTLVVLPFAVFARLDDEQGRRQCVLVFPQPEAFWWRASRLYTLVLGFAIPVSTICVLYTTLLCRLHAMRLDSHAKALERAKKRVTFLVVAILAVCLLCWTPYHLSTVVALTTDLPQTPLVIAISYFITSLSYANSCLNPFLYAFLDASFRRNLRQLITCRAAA
Chain of Melanin-concentrating hormone receptor 1 (Q99705 whole entry): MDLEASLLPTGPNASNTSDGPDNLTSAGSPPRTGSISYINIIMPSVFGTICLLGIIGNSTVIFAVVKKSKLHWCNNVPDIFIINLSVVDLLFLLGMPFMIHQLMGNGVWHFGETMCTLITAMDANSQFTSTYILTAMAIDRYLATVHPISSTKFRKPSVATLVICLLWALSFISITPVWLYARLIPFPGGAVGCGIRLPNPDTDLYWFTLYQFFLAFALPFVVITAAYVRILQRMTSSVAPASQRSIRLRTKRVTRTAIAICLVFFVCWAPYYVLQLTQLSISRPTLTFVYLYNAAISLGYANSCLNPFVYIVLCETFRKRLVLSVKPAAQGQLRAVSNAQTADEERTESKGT
Chain of Cytochrome P450 2D6 (P10635 whole entry, the tested form may be a part): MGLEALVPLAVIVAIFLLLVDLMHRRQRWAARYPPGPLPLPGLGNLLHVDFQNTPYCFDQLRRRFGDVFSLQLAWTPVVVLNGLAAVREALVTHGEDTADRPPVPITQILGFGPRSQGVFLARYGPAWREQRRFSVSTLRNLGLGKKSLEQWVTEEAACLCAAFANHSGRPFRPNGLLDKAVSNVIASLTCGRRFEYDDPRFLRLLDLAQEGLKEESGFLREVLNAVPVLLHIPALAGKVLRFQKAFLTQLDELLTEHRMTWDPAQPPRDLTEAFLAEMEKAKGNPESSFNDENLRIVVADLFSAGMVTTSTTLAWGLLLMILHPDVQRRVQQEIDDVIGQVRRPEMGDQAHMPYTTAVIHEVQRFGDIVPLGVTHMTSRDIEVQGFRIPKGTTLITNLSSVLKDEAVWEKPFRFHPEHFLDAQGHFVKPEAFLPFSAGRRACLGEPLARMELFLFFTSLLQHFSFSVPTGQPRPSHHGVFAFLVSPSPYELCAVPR
Chain of Cytochrome P450 2C19 (P33261 whole entry): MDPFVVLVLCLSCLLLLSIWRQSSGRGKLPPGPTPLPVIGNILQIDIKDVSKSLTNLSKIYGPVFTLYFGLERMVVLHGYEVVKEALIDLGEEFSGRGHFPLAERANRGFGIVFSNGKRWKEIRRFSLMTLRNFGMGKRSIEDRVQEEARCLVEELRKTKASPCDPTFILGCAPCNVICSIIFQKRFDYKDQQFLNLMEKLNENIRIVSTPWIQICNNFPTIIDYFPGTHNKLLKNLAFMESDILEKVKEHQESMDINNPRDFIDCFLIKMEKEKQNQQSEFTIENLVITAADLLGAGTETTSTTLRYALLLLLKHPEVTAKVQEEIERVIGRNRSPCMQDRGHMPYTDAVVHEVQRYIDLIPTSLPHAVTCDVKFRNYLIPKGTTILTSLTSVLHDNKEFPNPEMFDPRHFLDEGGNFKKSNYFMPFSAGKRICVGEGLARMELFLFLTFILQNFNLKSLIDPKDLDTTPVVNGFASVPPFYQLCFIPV
Chain of Large T antigen (P03070 whole entry): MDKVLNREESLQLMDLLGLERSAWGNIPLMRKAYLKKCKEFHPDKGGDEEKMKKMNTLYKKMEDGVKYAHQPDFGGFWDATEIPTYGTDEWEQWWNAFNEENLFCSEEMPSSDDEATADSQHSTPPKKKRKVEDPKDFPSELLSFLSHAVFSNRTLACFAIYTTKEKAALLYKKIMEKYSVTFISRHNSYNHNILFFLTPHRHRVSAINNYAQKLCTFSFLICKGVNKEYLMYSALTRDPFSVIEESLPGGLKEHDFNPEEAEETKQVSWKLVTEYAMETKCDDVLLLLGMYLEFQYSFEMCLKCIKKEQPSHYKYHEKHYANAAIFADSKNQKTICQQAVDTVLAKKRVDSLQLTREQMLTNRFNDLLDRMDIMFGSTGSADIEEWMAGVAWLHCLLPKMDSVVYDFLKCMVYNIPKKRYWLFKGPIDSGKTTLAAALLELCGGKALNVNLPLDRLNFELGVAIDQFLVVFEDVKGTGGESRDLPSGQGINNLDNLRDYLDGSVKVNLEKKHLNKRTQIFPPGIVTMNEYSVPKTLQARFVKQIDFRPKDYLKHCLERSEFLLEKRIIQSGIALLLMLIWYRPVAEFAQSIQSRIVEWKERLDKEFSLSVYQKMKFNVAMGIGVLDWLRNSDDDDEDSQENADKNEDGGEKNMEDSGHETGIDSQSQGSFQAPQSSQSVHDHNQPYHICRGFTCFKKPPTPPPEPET

IC50 (Large T antigen): 59.6 µM (active) | IC50 (SUMO-activating enzyme [1]): 32.7 µM (active) | EC50 [2]: > 300 µM (not active) | IC50 (SUMO-activating enzyme [3]): 2.28 µM (active) | AC50 (Cytochrome P450 2D6): 15.8 µM (inconclusive) | EC50 [4]: > 300 µM (not active) | AC50 (Cytochrome P450 2C19): 15.8 µM (inconclusive) | AC50 (Cytochrome P450 1A2): 1.58 µM (inconclusive)
SMILES: N=C1/C(=C\c2ccc(SCc3ccco3)o2)C(=O)N=C2SC=NN12

IC50 [6]: 26.2 µM (not active) | IC50 [7]: > 43.8 µM (not active)
SMILES: Cc1cc(C[n+]2cc(Br)ccc2N)c2ncccc2c1
CC50 [5]: 46.4 µM (active)

SMILES: COc1cc(NC(=O)c2cc(C(C)C)on2)c(OC)cc1Cl
EC50 [8]: 0.00104 µM (active)
